Results on 8 compounds are retold here after ChEMBL document CHEMBL3860096, “Fragment-to-Lead Medicinal Chemistry Publications in 2015” (J Med Chem, 2017).

Test [1] can be described thus: Inhibition of Streptococcus pneumoniae NAD+-dependent DNA ligase A.
Test [2] can be described thus: Inhibition of Haemophilus influenzae NAD+-dependent DNA ligase A.
A short description of test [3]: Inhibition of DNA gyrase B (unknown origin).
In test [4] the target is DNA repair protein RAD51 homolog 1 (Homo sapiens, UniProt Q06609). Put plainly: Binding affinity to of humanised RAD51 C-terminal ATPase domain (with deletion of L2 loop residues 288 to 314) from Pyrococcus furiosus expressed in Escherichia coli by ITC method. Background: In ITC the heat of successive injections is recorded.
The target of another test is Coagulation factor XI (Homo sapiens, UniProt P03951). In words: Inhibition of human factor 11a using pyroGlu-Pro-Arg-pNA.HCl substrate.
Test [5] deals with Proto-oncogene tyrosine-protein kinase receptor Ret (Homo sapiens) (UniProt P07949). Put plainly: Inhibition of human recombinant RET assessed as residual activity at 100 uM by microfluidics separation based assay.
The target in another test is Collagenase 3 (Homo sapiens, UniProt P45452). In words: Inhibition of human recombinant MMP13 using thiopeptide as chromogenic substrate by colorimetric assay.

DNA repair protein RAD51 homolog 1, sequence (Q06609 2-339 limits assumed): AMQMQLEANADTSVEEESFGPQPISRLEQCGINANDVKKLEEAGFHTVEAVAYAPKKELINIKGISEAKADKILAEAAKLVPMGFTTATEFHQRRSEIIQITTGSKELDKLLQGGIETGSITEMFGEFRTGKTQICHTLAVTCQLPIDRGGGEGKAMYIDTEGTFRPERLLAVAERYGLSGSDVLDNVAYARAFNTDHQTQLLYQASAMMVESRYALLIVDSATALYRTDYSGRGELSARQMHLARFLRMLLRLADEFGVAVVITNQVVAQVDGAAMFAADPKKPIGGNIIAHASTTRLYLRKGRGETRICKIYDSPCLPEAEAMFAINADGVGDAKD
Coagulation factor XI, sequence (P03951 19-387 limits assumed): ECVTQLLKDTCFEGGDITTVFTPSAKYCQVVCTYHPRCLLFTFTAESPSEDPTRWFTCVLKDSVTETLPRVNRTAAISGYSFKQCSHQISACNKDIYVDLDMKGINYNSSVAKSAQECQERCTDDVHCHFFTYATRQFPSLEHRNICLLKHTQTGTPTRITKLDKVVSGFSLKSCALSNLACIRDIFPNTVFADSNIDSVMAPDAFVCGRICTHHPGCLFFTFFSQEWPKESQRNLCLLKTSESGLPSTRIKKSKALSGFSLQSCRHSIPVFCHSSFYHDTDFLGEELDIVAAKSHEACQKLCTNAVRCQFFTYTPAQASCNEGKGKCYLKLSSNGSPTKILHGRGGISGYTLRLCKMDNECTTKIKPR
Coagulation factor XI, sequence (P03951 388-625 limits assumed): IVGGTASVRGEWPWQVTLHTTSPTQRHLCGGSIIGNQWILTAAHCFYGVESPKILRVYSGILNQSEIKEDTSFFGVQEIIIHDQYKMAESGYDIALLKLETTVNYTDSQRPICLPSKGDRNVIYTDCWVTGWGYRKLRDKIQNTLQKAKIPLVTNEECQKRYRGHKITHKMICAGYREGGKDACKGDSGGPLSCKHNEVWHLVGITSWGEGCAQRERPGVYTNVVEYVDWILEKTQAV
Proto-oncogene tyrosine-protein kinase receptor Ret (Homo sapiens), sequence (P07949 whole entry): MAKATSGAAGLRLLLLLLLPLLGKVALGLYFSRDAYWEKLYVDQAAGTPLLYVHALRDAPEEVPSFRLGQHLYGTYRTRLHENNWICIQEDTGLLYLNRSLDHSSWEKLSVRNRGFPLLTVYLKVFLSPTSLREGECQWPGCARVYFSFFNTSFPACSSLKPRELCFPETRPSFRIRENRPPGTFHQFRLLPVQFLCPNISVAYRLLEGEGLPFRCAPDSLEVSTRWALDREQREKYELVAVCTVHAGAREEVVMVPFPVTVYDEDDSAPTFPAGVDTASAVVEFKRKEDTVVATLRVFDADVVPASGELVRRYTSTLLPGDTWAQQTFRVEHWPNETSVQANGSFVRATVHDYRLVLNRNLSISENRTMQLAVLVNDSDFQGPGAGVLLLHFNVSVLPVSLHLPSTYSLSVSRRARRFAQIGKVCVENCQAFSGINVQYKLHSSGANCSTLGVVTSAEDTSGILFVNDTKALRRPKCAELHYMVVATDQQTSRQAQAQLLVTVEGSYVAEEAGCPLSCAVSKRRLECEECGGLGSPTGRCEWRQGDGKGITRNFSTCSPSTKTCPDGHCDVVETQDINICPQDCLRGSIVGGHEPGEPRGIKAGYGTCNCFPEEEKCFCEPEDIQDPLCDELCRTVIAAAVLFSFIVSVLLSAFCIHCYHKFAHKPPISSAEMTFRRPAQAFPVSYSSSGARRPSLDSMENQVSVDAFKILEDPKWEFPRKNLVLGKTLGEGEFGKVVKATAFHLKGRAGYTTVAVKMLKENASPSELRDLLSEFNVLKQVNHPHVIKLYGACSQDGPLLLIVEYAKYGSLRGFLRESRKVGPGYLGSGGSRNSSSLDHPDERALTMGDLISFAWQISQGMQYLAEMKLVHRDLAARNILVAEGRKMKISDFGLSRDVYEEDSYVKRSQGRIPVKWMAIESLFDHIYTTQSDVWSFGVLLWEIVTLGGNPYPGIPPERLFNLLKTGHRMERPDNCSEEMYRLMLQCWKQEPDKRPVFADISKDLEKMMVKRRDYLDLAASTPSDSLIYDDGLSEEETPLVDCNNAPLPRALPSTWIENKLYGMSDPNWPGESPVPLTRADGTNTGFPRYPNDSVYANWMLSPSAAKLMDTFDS

In the case of `CC(C)(C)c1nc(-c2ccc[nH]2)c2cc(C(N)=O)c(N)nc2n1`, the 50% inhibitory concentration (IC50) in test [1] and in test [2] was 100 nM each time.

Regarding `Cc1cc(-c2cc(NC(=O)c3ccc(C(=O)O)cc3C)[nH]n2)cc(C(F)(F)F)c1`, the IC50 in test [3] came out at 160 nM.

In test [4], `COC(=O)[C@@H](N)Cc1c[nH]c2ccccc12` [TRYPTOPHAN METHYL ESTER] returned a Kd of 570000 nM.

Consider `O=C(N[C@@H](Cc1ccccc1)C(=O)NCc1cc2cc(Cl)ccc2[nH]c1=O)c1ccc2[nH]c(=O)cc(O)c2c1`, for which the Ki at Coagulation factor XI worked out at 0.5 nM.

In the case of `Brc1ccc2c(c1)ncn2-c1ccccc1`, the Activity in test [5] turned out to be 28%.

In the case of `COc1cccc(CNC(=O)C#Cc2cn(Cc3ccc(C(=O)O)cc3)c(=O)[nH]c2=O)c1`, the half-inhibitory concentration (IC50) on Collagenase 3 was 11 nM.

With `Cc1ccc2cc(C(N)=O)cc(O)c2n1`, the IC50 in test [1] and in test [2] was more than 500000 nM each time.

The compound `O=S(=O)(NCCc1c[nH]c2ccccc12)c1cc(Br)c(Cl)s1` showed a Kd in test [4] of 1300 nM.

Broadly, the IC50 is the concentration needed to halve the response being measured. A word on the Kd: it is the constant that tells how readily two partners part at equilibrium. Read a high Kd as a looser complex. Usually Ki stands for the equilibrium dissociation constant of an inhibitor or competing ligand from its target. Lower therefore signals a stronger hold on the target.
